We go through one molecule from BindingDB's records for doi:10.1016/s0960-894x(00)00493-5 (Wyeth-Ayerst Research, 2000).

For orientation: IC50 means the midpoint of a concentration-inhibition curve. Lower therefore signals greater potency in that assay.

Bounds are passed on as bounds.

For the experiment, the target named is Proto-oncogene tyrosine-protein kinase Src (Homo sapiens, UniProt P12931). Put plainly: Kinase inhibition Assay. The following applies: pH 7.5; 30 °C. Here is the method:
Src kinase activity was measured in an ELISA format. IC50 is the inhibitor concentration which inhibits 50% of kinase activity that catalyzes the transfer of the terminal phosphate from ATP to the substrate.

Chain of Proto-oncogene tyrosine-protein kinase Src (P12931 2-536 limits assumed): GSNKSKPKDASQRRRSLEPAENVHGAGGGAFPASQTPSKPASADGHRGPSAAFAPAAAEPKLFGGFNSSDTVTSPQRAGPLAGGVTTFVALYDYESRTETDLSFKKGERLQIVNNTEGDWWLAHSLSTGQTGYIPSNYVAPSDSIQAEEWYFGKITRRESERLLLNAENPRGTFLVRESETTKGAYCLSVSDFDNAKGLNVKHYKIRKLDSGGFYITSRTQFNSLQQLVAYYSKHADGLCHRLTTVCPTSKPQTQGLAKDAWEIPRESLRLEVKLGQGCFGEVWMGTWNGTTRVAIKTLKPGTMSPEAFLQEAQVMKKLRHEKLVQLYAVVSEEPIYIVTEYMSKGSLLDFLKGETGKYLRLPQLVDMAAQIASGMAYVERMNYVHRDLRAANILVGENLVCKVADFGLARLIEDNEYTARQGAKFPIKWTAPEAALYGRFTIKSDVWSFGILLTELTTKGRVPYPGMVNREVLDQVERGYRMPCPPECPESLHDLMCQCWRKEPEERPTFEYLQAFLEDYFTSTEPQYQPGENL

Take `COc1cc2ncc(C#N)c(NCc3cc(OC)c(OC)c(OC)c3)c2cc1OC` [6,7-dimethoxy-4-{[(3,4,5-trimethoxyphenyl)methyl]amino}quinoline-3-carbonitrile]: the IC50 was more than 10 µM.
